In assay [1] the test system is above-mentioned bacterial strains. In words: Spot assays on bacterial lawns and direct kill assays of synthetic peptides. The assay is classed as cell-based. The method, then:
The fractions were dried and reconstituted in water and spotted onto Tryptic soy agar plates that were spread with 100 μL of select bacterial grown overnight in tryptic soy broth.
We have named them HBCA1 and HBCA2.
(§1) All three peptides were tested using direct kills assays. Equal inoculums of indicated bacterial pathogens were incubated either with water (−) or 50 mg/ml of HBCA1, HBCA2 or HBCA2.C. Aliquots were spotted at T=0 min (start of incubation) and at 30 minutes post incubation (T=30 min) on LB-agar plates, and incubated at 37° C. overnight to see growth.

Another assay deals with Porphyromonas gingivalis. Nature of the assay: Kill assay on TSA plates (5% difibrinated blood). It is filed as cell-based. An excerpt:
Porphyromonas gingivalis (a keystone pathogen in chronic periodontitis, and identified in the brains of Alzheimer's patients) is sensitive to HBCA1 and HBCA2 peptides.

The test system of assay [2] is commensal Lactobacillus strains. Nature of the assay: Activity against commensal strains. The settings on record: strains commonly found in infant and adult gut. The assay is classed as cell-based.
A further assay relates to S. aureus (MRSA). In words: Killing of pathogenic bacteria. The assay is classed as cell-based. The procedure: as §1
The next assay relates to E. coli (EHEC). In words: Killing of pathogenic bacteria. The assay is classed as cell-based. The method, then:
as §1

In a further assay the test system is L. monocytogenes. Nature of the assay: Killing of pathogenic bacteria. It is filed as cell-based. The method, then:
as §1

The subject of the next assay is S. enteritidis. In words: Killing of pathogenic bacteria. The assay is classed as cell-based. The method, then:
as §1

In the next assay the test system is E. faecalis. In words: Killing of pathogenic bacteria. It is filed as cell-based. The method, then:
as §1

The subject of another assay is G. vaginalis. Nature of the assay: Direct kill assay on HBT bilayer Gardnerella media. The assay is classed as cell-based, Gardnerella vaginalis. The procedure: When we subjected G. vaginalis to direct kill assays using HBCA1 and HBCA2, we observed that both peptides render G. vaginalis non-viable within 30 minutes, as indicated by loss of bacterial growth on HBT bilayer Gardnerella media (FIG. 9).

The subject of another assay is K. pneunomiae. Nature of the assay: Killing of pathogenic bacteria. It is filed as cell-based, K. pneumoniae. The method, then:
as §1

In assay [3] the test system is indicated bacterial pathogens. Nature of the assay: Direct kill assay. It is filed as cell-based. The settings on record: 50 mg/ml. The procedure: as §1
The next assay deals with P. aeruginosa. In words: Direct kill assay. It is filed as cell-based. The procedure: as §1
The test system of assay [4] is commensal Bifidobacterium strains. In words: Activity against commensal strains. It is filed as cell-based. The settings on record: strains commonly found in infant and adult gut.
For a further assay, the system named is K. pneumoniae. In words: Activity on TSA plates (FIG. 16). The assay is classed as cell-based. Particulars: 20 mg/ml and 10 mg/ml on TSA plates. The procedure: FIG. 16 depicts activity of HBCA2 peptide against K. pneumoniae at 20 mg/ml and 10 mg/ml on TSA plates.

Entries after “also recorded” stand apart in the source; their conditions may differ.

Regarding “TVYTKGRVMPVLKSPTIPFFDPQI (listed as Homo sapiens) [HBCA1]”, the antibacterial activity result in [1] is recorded as “showed antibacterial activity”. Besides, the “sensitivity of P. gingivalis” value in the assay with Porphyromonas gingivalis is “sensitive”.
As for “RVMPVLKSPTIP (listed as Homo sapiens) [HBCA2]”, the antibacterial activity entry in assay [1] is “showed antibacterial activity”. The “activity against commensal Lactobacillus strains” value in assay [2] is “no detected activity”. Also, the “killing of S. aureus (MRSA)” value with S. aureus (MRSA) is recorded as “kills”. For the same sequence, the “killing of E. coli (EHEC)” value in the assay with E. coli (EHEC) is “kills”. Besides, in the assay with L. monocytogenes, the “killing of L. monocytogenes” value is reported as “kills”. Also, in the assay with S. enteritidis, the “killing of S. enteritidis” value is given as “kills”. Also, the “killing of E. faecalis” value with E. faecalis is recorded as “kills”. Further, the “killing of Gardnerella vaginalis” value with G. vaginalis is “kills”. Also, the “killing / viability of K. pneumoniae” value with K. pneunomiae is listed as “kills”. Also, in the assay with Porphyromonas gingivalis, the “killing of Porphyromonas gingivalis” value was “kills” and the “sensitivity of P. gingivalis” value is recorded as “sensitive”. The “speed of loss of viability of P. gingivalis” value in the assay with Porphyromonas gingivalis (upon mixing cells with peptide) is “rapid killing; also recorded: rapidly lose viability right at 0 minutes”. For the same sequence, the “relative activity of the peptides in direct kill assays” value in assay [3] is “more potent in its activity than the larger HBCA1 peptide”. In addition, the “killing of P. aeruginosa” value in the assay on P. aeruginosa was “kills”. The “loss of viability of P. aeruginosa” value with P. aeruginosa (50 mg/ml, T=0 min) was “rapidly lost (while mixing at T0)”. Also, the “activity against commensal Bifidobacterium strains” value in assay [4] was “no detected activity”.
Consider RVRPKLKSPRIP [HBCA2.4], for which the “relative potency against K. pneumoniae” value in the assay on K. pneumoniae is given as “most potent of the HBCA peptides”.

(Values after patent publication US20240010693A1, “PEPTIDES FROM HUMAN B-CASEIN THAT HAVE ANTI-BACTERIAL ACTIVITY” (priority 2020, published 2024).)
